Results from the supplement of paper PMC10307832.

How the values were obtained:
Assay in all cases: relative viability (nuclei count vs DMSO), 5 days (fraction); higher = more cells survive
[1] = compound: O=C(Nc1cccc(C(F)(F)F)c1)Nc1cc(S(=O)(=O)NC2CC2)ccc1-c1ccsc1 [AGI-6780] + CC(=O)Nc1cccc(-n2c(=O)n(C3CC3)c(=O)c3c(Nc4ccc(I)cc4F)n(C)c(=O)c(C)c32)c1 [Trametinib] (partner 0.02 µM)
Procedure, shortened: (§1)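 For relative viability, nuclei counts in treated wells were divided by those in vehicle wells. Lung cancer cell lines had been pin-tool dosed in 1536-well plates the day after seeding and cultured for 5 days, then fixed and stained in one step (final 0.05% Triton X-100, 1% formaldehyde, 1 ug/ml Hoechst) and imaged at 4×. Doses were one drug alone or a fixed anchor-drug dose plus five library-drug doses (not always all listed) in √10 steps, and values are duplicate-plate medians.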

[2] = compound: O=C(Nc1cccc(C(F)(F)F)c1)Nc1cc(S(=O)(=O)NC2CC2)ccc1-c1ccsc1 [AGI-6780] + CS(=O)(=O)CCNCc1ccc(-c2ccc3ncnc(Nc4ccc(OCc5cccc(F)c5)c(Cl)c4)c3c2)o1 [Lapatinib] (partner 2 µM)
Procedure, shortened: as §1

[3] = compound: O=C(Nc1cccc(C(F)(F)F)c1)Nc1cc(S(=O)(=O)NC2CC2)ccc1-c1ccsc1 [AGI-6780] + O=C(c1cc(Cc2n[nH]c(=O)c3ccccc23)ccc1F)N1CCN(C(=O)C2CC2)CC1 [Olaparib] (partner 8 µM)
Procedure, shortened: as §1

[4] = compound: O=C(Nc1cccc(C(F)(F)F)c1)Nc1cc(S(=O)(=O)NC2CC2)ccc1-c1ccsc1 [AGI-6780] + N=C(N)NC(=N)NCCc1ccccc1 [Phenformin] (partner 250 µM)
Procedure, shortened: as §1

Cell Line	relative viability ([1]; first compound 0.08 µM)	relative viability ([1]; first compound 0.253 µM)	relative viability ([1]; first compound 0.8 µM)	relative viability ([1]; first compound 2.53 µM)	relative viability ([1]; first compound 8 µM)	relative viability ([2]; first compound 0.08 µM)	relative viability ([2]; first compound 0.253 µM)	relative viability ([2]; first compound 0.8 µM)	relative viability ([2]; first compound 2.53 µM)	relative viability ([2]; first compound 8 µM)	relative viability ([3]; first compound 0.08 µM)	relative viability ([3]; first compound 0.253 µM)	relative viability ([3]; first compound 0.8 µM)	relative viability ([3]; first compound 2.53 µM)	relative viability ([3]; first compound 8 µM)	relative viability ([4]; first compound 0.08 µM)	relative viability ([4]; first compound 0.253 µM)	relative viability ([4]; first compound 0.8 µM)	relative viability ([4]; first compound 2.53 µM)	relative viability ([4]; first compound 8 µM)
LXF-289	0.722	0.683	0.657	0.74	0.683	0.903	0.897	0.906	0.936	0.831	1.07	1.02	1.08	1.06	1.03	0.516	0.518	0.538	0.529	0.541
HCC-44	1.08	0.993	1.1	0.994	1.07	0.989	1	1.03	0.96	1.04	1.03	0.989	0.98	0.979	1.02	0.182	0.202	0.354	0.175	0.257
EMC-BAC-2	–	0.909	0.896	0.752	0.842	0.919	0.929	0.878	0.725	0.94	–	0.477	0.409	0.45	0.53	0.57	0.602	0.508	0.456	0.531
NCI-H522	0.667	0.801	0.75	–	0.645	–	–	–	–	–	0.527	0.636	0.746	–	0.551	0.706	0.659	0.633	0.616	0.627
NCI-H1792	0.532	0.332	0.611	–	0.483	0.805	0.893	1.14	0.883	0.914	0.266	0.404	0.576	–	0.292	0.159	0.279	0.195	0.241	0.345
NCI-H661	0.671	0.61	0.558	0.542	0.62	0.549	0.518	0.616	0.474	0.516	0.782	0.754	0.768	0.719	0.726	0.284	0.344	0.27	0.261	0.252
LCLC-103H	0.678	0.709	0.643	0.644	0.696	–	–	–	–	–	0.762	0.755	0.716	0.688	0.721	0.311	0.305	0.338	0.33	0.375
